From patent publication US20230372346A1, “TREATMENT REGIMENS FOR EXON-20 INSERTION MUTANT EGFR CANCERS” (CULLINAN PEARL CORP., priority 2020, published 2023)

Tests used:
[1] = tested on: phosphorylation of EGFR and its downstream effectors; details: cited from earlier work
[2] = tested on: NSCLC harboring EGFR exon 20 insertion mutations; assay: Phase 1/2a study, antitumor activity (RECIST v1.1); assay type: in vivo, human
Method: This is a Phase 1/2a, open-label, multicenter, first-in-human trial to evaluate the safety and tolerability, PK, PD, and preliminary efficacy of CLN-081 in patients with non-small cell lung cancer (NSCLC) harboring epidermal growth factor receptor (EGFR) exon 20 insertion mutations.
The antitumor activity of study treatment will be assessed according to RECIST v1.1 guideline
As part of this phase 1/2 study, dose levels including 30, 45, 65, 100 and 150 mg BID were explored during the escalation phases. Efficacy expansions were initiated at 30, 65 and 100 mg BID. A Phase 2a expansion was initiated at 100 mg BID after meeting protocol specified safety and efficacy criteria. Tumor assessments were performed at baseline, after 6 weeks of CLN-081 administration and every 9 weeks thereafter.

C=CC(=O)N[C@H]1C=C(C)c2c(-c3cnc4ccccc4c3)c3c(N)ncnc3n2C1 [Compound 1, (S)—N-(4-amino-6-methyl-5-(quinolin-3-yl)-8,9-dihydropyrimido[5,4-b]indolizin-8-yl)acrylamide]
in vivo inhibitory effect on the phosphorylation of EGFR and its downstream effectors ([1]; human lung cancer xenografts harboring EGFR exon 20 insertions): potent and durable in vivo inhibitory effect | effect on skin tissue with WT EGFR ([1]; in vivo): spares skin tissue with WT EGFR | Best response PR, % ([2]; 30 mg BID (n = 8)): 38% | Best response SD, % ([2]; 30 mg BID (n = 8)): 62% | Confirmed response, % ([2]; 30 mg BID (n = 8)): 38% | Disease Control Rate (PR + SD ≥ 6 mo), % ([2]; 30 mg BID (n = 8)): 62% | Best response SD, % ([2]; 45 mg BID (n = 1)): 100% | Best response PD, % ([2]; 65 mg BID (n = 14)): (7) % | Best response PR, % ([2]; 65 mg BID (n = 14)): (50) % | Best response SD, % ([2]; 65 mg BID (n = 14)): (43) % | Confirmed response, % ([2]; 65 mg BID (n = 14)): (14) % | Disease Control Rate (PR + SD ≥ 6 mo), % ([2]; 65 mg BID (n = 14)): (57) % | Pending confirmation, % ([2]; 65 mg BID (n = 14)): (21) % | Unconfirmed response, % ([2]; 65 mg BID (n = 14)): (14) % | Best response PR, % ([2]; 100 mg BID (n = 13)): (54) % | Best response SD, % ([2]; 100 mg BID (n = 13)): (46) % | Confirmed response, % ([2]; 100 mg BID (n = 13)): (46) % | Disease Control Rate (PR + SD ≥ 6 mo), % ([2]; 100 mg BID (n = 13)): (69) % | Unconfirmed response, % ([2]; 100 mg BID (n = 13)): (8) % | evaluable patients who achieved a PR ([2]; 100 mg BID, 7/13, 6 confirmed and 1 unconfirmed): 54% | Best response PR, % ([2]; 150 mg BID (n = 6)): 67% | Best response SD, % ([2]; 150 mg BID (n = 6)): 33% | Confirmed response, % ([2]; 150 mg BID (n = 6)): 33% | Disease Control Rate (PR + SD ≥ 6 mo), % ([2]; 150 mg BID (n = 6)): 83% | Pending confirmation, % ([2]; 150 mg BID (n = 6)): 33% | objective responses (all partial responses) ([2]; 21 of 42 evaluable patients across dose levels): 50% | response-evaluable patients who remained on treatment at the data cut-off ([2]; 22/42 across dose levels): 52% | Disease control (PR or SD ≥6 months) ([2]; 27/42 across all doses): 64% | patients with stable disease (SD) or PR as the best response ([2]; 41/42 across dose levels): 98% | patients with disease progression as the best response ([2]; across dose levels): one | antitumor activity ([2]; heavily-pretreated patients, across EGFR Ins 20 variants and dose levels): encouraging antitumor activity | dose cohorts in which partial responses were registered ([2]; in vivo): all dose cohorts tested so far | lowest dose cohort at which partial response was reported ([2]; in vivo): 30 mg BID | unconfirmed objective responses, patients ([2]; of 21 responders, including 5 pending a confirmatory scan): 8 | confirmed objective responses, patients ([2]; of the 21 patients achieving an objective response): 13 | response in patients previously treated with poziotinib and TAK788 (mobocertinib) ([2]; some patients): partial responses
